Like-named read-outs stand apart in the source and are kept apart here. Bridges are numbered along the chain shown (N, C = ends). Where no end group is shown, it is not given here.
Target: human insulin receptor (Homo sapiens, UniProt P06213)
Format: binding
Protocol: Alternatively the insulin receptor binding was tested in a hIRBHK membrane assay as follows: • Binding of [^125I]-human insulin to membrane-associated recombinant human insulin receptor isoform A (hIR-A) • Reagents: • ^125I-Insulin: Novo Nordisk A/S, mono ^125I-(TyrA14) human insulin • Human Insulin: Novo Nordisk A/S, • Human serum albumin: Dade Behring, ORHA 194 C30, lot 455077 • Plastic ware: Packard OptiPlate™-96, #6,005,290 • Scintillant: Amersham Biosciences, WGA coated PVT microspheres, # RPNQ0001 • Cells: BHK tk^− ts13 cells expressing recombinant human insulin receptor isoform A (hIR12-14).
Extraction of membrane-associated insulin receptors: BHK cells from a ten-layer cell factory were harvested and homogenised in 25 ml of ice-cold buffer (25 mM HEPES pH 7.4, 2.5 mM CaCl2, 1 mM MgCl2, 250 mg/l bacitracin, 0.1 mM Pefablock). The homogenate was layered carefully on 41% sucrose cushions, centrifuged in the ultracentrifuge at 95,000×g for 75 minutes in a Beckman SW28 rotor at 4° C. The plasma membranes were collected from the top of the sucrose cushion, diluted 1:4 with buffer and centrifuged at 40,000×g for 45 min in a Beckman SW28 rotor. The pellets were suspended in buffer (25 mM HEPES pH 7.4, 2.5 mM CaCl2, 1 mM MgCl2, 250 mg/l bacitracin, 0.1 mM Pefablock) and stored at −80° C.
Radioligand binding to membrane-associated insulin receptors was performed in duplicate in 96-well OptiPlates. Membrane protein was incubated for 150 minutes at 25° C. with […] [^125I-Tyr^A14]-human insulin in a total volume of […] assay buffer (50 mM HEPES, 150 mM NaCl, 5 mM MgSO4, 0.01% Triton X-100, 0.1% HSA, Complete™ EDTA-free protease inhibitors) and increasing concentrations of human insulin or insulin analogues (typically between 0.01 and 300 nM). The assay was terminated by addition of 50 μl of a suspension of WGA-coated PVT microspheres (20 mg/ml). Following 5 minutes of slight agitation, the plate was centrifuged at 1500 RPM for 6 minutes, and bound radioactivity quantified by counting in a Packard TopCount NXT after a delay of 60 minutes. […]

[1] = acylated single-chain insulins of Examples 2-4

Sequence of human insulin receptor (P06213 28-746 isoform P06213-2 limits assumed): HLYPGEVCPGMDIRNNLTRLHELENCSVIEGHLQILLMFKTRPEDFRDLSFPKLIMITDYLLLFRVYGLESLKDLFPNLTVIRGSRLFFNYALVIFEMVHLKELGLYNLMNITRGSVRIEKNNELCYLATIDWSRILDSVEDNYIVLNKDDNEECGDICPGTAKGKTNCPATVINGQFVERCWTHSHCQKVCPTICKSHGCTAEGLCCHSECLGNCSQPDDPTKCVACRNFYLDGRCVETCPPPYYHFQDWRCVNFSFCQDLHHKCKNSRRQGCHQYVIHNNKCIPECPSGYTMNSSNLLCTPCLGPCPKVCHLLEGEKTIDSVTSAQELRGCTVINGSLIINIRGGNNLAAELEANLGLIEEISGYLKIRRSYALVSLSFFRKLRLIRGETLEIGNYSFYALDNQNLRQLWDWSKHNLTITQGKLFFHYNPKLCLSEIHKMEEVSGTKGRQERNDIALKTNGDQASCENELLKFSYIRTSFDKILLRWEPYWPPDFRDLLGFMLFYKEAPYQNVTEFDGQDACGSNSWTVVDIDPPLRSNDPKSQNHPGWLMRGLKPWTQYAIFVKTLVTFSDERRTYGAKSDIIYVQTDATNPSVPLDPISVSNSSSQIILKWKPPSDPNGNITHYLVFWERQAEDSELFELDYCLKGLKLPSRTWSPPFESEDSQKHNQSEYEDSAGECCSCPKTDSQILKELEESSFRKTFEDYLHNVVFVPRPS
Sequence of human insulin receptor (P06213 763-1382 partner limits assumed): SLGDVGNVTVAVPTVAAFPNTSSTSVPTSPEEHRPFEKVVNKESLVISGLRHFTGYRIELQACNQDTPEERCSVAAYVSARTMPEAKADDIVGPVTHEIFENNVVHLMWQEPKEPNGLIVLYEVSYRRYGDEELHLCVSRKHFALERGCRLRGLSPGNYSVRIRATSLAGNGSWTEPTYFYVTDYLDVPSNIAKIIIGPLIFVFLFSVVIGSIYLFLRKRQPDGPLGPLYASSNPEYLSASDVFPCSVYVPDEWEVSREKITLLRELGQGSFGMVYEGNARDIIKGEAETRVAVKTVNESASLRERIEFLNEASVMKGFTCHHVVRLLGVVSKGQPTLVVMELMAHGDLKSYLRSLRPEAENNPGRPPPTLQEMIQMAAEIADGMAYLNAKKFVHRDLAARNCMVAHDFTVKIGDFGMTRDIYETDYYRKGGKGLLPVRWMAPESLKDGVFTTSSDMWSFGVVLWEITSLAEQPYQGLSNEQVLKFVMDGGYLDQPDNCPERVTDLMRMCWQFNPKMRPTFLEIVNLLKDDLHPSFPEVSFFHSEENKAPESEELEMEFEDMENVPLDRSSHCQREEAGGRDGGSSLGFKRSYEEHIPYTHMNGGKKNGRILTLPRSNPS

| Compound | IC50 relative to human insulin in %. [%] | IC50 relative to human insulin in %. [1] [%] |
| --- | --- | --- |
| CCCCCCCCCCCCCC(=O)NCCCC[C@@H]1NC(=O)CNC(=O)[C@H](CC(C)C)NC(=O)CNC(=O)[C@H]([C@@H](C)O)NC(=O)[C@H](CCCNC(=N)N)NC(=O)[C@@H]2CCCN2C(=O)[C@H]([C@@H](C)O)NC(=O)[C@H](Cc2ccc(O)cc2)NC(=O)[C@H](Cc2ccccc2)NC(=O)[C@H](Cc2ccccc2)NC(=O)CNC(=O)[C@H](CCCNC(=N)N)NC(=O)[C@H](CCC(=O)O)NC(=O)CNC(=O)[C@@H]2CSSC[C@@H](C(=O)NCC(=O)O)NC(=O)[C@H](Cc3ccc(O)cc3)NC(=O)[C@H](CCC(N)=O)NC(=O)[C@H](CCC(=O)O)NC(=O)[C@H](CC(C)C)NC(=O)[C@H](CCC(N)=O)NC(=O)[C@H](Cc3ccc(O)cc3)NC(=O)[C@H](CC(C)C)NC(=O)[C@H](CO)NC(=O)[C@@H]3CSSC[C@H](NC(=O)[C@H](CCC(N)=O)NC(=O)[C@H](CCC(=O)O)NC(=O)[C@H](C(C)C)NC(=O)[C@H]([C@@H](C)CC)NC(=O)CNC(=O)[C@H](CCC(N)=O)NC(=O)CNC1=O)C(=O)N[C@@H](CSSC[C@H](NC(=O)[C@H](CC(C)C)NC(=O)[C@H](Cc1c[nH]cn1)NC(=O)[C@H](CCC(N)=O)NC(=O)[C@H](CCC(N)=O)NC(=O)[C@@H](NC(=O)[C@@H](N)Cc1ccccc1)C(C)C)C(=O)NCC(=O)N[C@@H](CO)C(=O)N[C@@H](Cc1c[nH]cn1)C(=O)N[C@@H](CC(C)C)C(=O)N[C@@H](C(C)C)C(=O)N[C@@H](CCC(=O)O)C(=O)N[C@@H](C)C(=O)N[C@@H](CC(C)C)C(=O)N[C@@H](Cc1ccc(O)cc1)C(=O)N[C@@H](CC(C)C)C(=O)N[C@@H](C(C)C)C(=O)N2)C(=O)N[C@@H]([C@@H](C)O)C(=O)N[C@@H](CO)C(=O)N[C@@H]([C@@H](C)CC)C(=O)N3 [Example 2, B(1-29)-B3Q-B29R-TGLGK((eps)myristoyl)GQ-A(1-21)-A18Q-A21G Human insulin] | 2 |  |
| B(1-29)-B3Q-B29R-TGLGK((eps)octadecandioyl)GQ-A(1-21)-A18Q-A21G Human insulin (FVQQHLCGSHLVEALYLVCGERGFFYTPRTGLGK(octadecandioyl)GQGIVEQCCTSICSLYQLEQYCG; disulfide 19-56, 42-47, 7-43) [Example 3] |  | 0.1 |
| B(1-29)-B3Q-B29R-TGLGK((eps)hexadecandioyl-γ-L-Glu)GQ-A(1-21)-A 8Q-A21 G Human insulin [Example 4] |  | 0.7 |

Reference: patent US8883449B2, “Single-chain insulin” (Novo Nordisk A/S, priority 2003, dated 2014)
